Reference: publication PMC9281440, “In Vivo Distribution and Therapeutic Efficacy of Radioiodine-Labeled pH-Low Insertion Peptide Variant 3 in a Mouse Model of Breast Cancer” (Molecular Imaging, 2022)
Like-named read-outs stand apart in the source and are kept apart here. Peptide text beside a SMILES is read from it.

Tests used:
[1] = Micro-SPECT/CT imaging and distribution of 125I-labeled pHLIPs; format: in vivo, mouse; conditions: female, athymic BALB/c nude, mouse, total radioactivity, 3.7 MBq iv, micro-SPECT/CT ROI, mean ± SD, n = 4; for tissue uptake at 24 h: 24 h pi; for tissue uptake at 48 h: 48 h pi; for tissue uptake at 1 h: 1 h pi; for tissue uptake at 2 h: 2 h pi; for tissue uptake at 4 h: 4 h pi
Procedure: Five-week-old female athymic BALB/c nude mice (Shanghai Slaccas Experiment Animal Corp., Shanghai, China) were used in our study. Mouse xenograft models of MDA-MB-231, 4T1, and SK-BR-3 cells were produced by the subcutaneous injection of 5 × 10^6 cells (suspended in 150 μL PBS) into the right axilla of each mouse. The mice were used in subsequent experiments when tumor diameter reached 0.5-0.9 cm. The study protocol was approved by the institutional review board and by the Experimental Animal Center of Ruijin Hospital affiliated to the School of Medicine of Shanghai Jiao Tong University.
Three days before micro-SPECT/CT imaging, 300 μL of 1% Kl solution was administered to mice by oral gavage once a day, and 0.1% Kl was added into the drinking water to block thyroid gland activity. Mice-bearing MDA-MB-231, 4T1, or SK-BR-3 tumors were intravenously injected with 3.7 MBq of ^125I-WT-pHLIP or ^125I-Var3-pHLIP. Each group contained four mice. The mice were anesthetized by isoflurane inhalation, placed in the prone position, and scanned using a four-head SPECT/CT system (U-SPECT/CT, MI-Lab, Netherlands) and dedicated multipinhole apertures with a diameter of 1.5 mm at 1, 2, 4, 24, and 48 h after injection of ^125I-labeled peptides. CT images were acquired after static SPECT imaging (10 min/frame). The images were reconstructed using U-SPECT REC software and analyzed using PMOD software version 3.9 (Switzerland). Regions of interest (ROIs) were drawn in the tumors and organs, including the brain, heart, liver, lungs, kidneys, intestine, and bladder, at various time points. The radioactivity per gram (ID%/g) in the ROIs was measured to obtain the dynamic tumor-to-background ratio (TBR, muscle tissue was used as the background) and the in vivo distribution and kinetics of ^125I-WT-pHLIP and ^125I-Var3-pHLIP in the xenograft models of BC.

MDA-MB-231 cells = experiment: In vitro cell binding assay of 125I-labeled peptides; format: cell-based, human; conditions: 37°C, mean ± SD, triplicate; for binding fraction to cells, B/(B + F) × 100%: γ counter
Procedure: Cells were incubated with ^125I-WT-pHLIP or ^125I-Var3-pHLIP for 1 h at 37°C in the medium at different pH values ranging from 6.2 to 7.8 (6.2, 6.6, 7.0, 7.4, 7.8). At the same time, cells in the medium at pH 6.2 were further incubated with ^125I-labeled peptide with an excess of unlabeled peptide (25 μg/well). The supernatant was aspirated into a tube. The cells were then washed twice with PBS of the corresponding pH to remove unbound radioactivity. The wash solution was also added to the supernatant tube containing free radioactivity (F). The cells with bound radioactivity (B) were completely lysed with 300 μl sodium hydroxide and aspirated into a cell tube. The radioactive counts of the cell and supernatant tube were measured by a γ counter. The cell binding fraction of the ^125I-labeled peptides was calculated as B/(B + F) × 100%. All experiments were performed in triplicate.

[2] = heart, SK-BR-3 tumor-bearing nude mice, read-out: Distribution, Heart
[3] = intestine, SK-BR-3 tumor-bearing nude mice, read-out: Distribution, Intestine
[4] = kidney, MDA-MB-231 tumor-bearing nude mice, read-out: Distribution, Kidney
[5] = kidney, SK-BR-3 tumor-bearing nude mice, read-out: Distribution, Kidney
[6] = liver, MDA-MB-231 tumor-bearing nude mice, read-out: Distribution, Liver
[7] = liver, SK-BR-3 tumor-bearing nude mice, read-out: Distribution, Liver
[8] = lung, MDA-MB-231 tumor-bearing nude mice, read-out: Distribution, Lung
[9] = lung, SK-BR-3 tumor-bearing nude mice, read-out: Distribution, Lung
[10] = muscle, SK-BR-3 tumor-bearing nude mice, read-out: Distribution, Muscle

- tissue uptake at 24 h [1, 2]: 0.38 ± 0.08 %ID/g
- tissue uptake at 48 h [1, 2]: 0.1 ± 0.02 %ID/g
- tissue uptake at 1 h [1, 3]: 3.05 ± 0.68 %ID/g
- tissue uptake at 2 h [1, 3]: 3.01 ± 0.26 %ID/g
- tissue uptake at 4 h [1, 3]: 2.38 ± 0.68 %ID/g
- tissue uptake at 24 h [1, 3]: 0.31 ± 0.14 %ID/g
- tissue uptake at 48 h [1, 3]: 0.07 ± 0.04 %ID/g
- tissue uptake at 1 h [1, 4]: 5.66 ± 2.26 %ID/g
- tissue uptake at 2 h [1, 4]: 5.61 ± 0.71 %ID/g
- tissue uptake at 4 h [1, 4]: 3.8 ± 0.89 %ID/g
- tissue uptake at 24 h [1, 4]: 0.41 ± 0.04 %ID/g
- tissue uptake at 48 h [1, 4]: 0.25 ± 0.13 %ID/g
- tissue uptake at 1 h [1, 5]: 6.67 ± 1.07 %ID/g
- tissue uptake at 2 h [1, 5]: 4.24 ± 0.97 %ID/g
- tissue uptake at 4 h [1, 5]: 3.56 ± 0.65 %ID/g
- tissue uptake at 24 h [1, 5]: 0.42 ± 0.11 %ID/g
- tissue uptake at 48 h [1, 5]: 0.18 ± 0.1 %ID/g
- tissue uptake at 1 h [1, 6]: 10.3 ± 1.33 %ID/g
- tissue uptake at 2 h [1, 6]: 10.2 ± 0.66 %ID/g
- tissue uptake at 4 h [1, 6]: 8.11 ± 1.63 %ID/g
- tissue uptake at 24 h [1, 6]: 1 ± 0.54 %ID/g
- tissue uptake at 48 h [1, 6]: 0.4 ± 0.22 %ID/g
- tissue uptake at 1 h [1, 7]: 11.4 ± 0.87 %ID/g
- tissue uptake at 2 h [1, 7]: 10.4 ± 1.6 %ID/g
- tissue uptake at 4 h [1, 7]: 11.4 ± 2.75 %ID/g
- tissue uptake at 24 h [1, 7]: 0.81 ± 0.2 %ID/g
- tissue uptake at 48 h [1, 7]: 0.23 ± 0.02 %ID/g
- tissue uptake at 1 h [1, 8]: 9.64 ± 0.8 %ID/g
- tissue uptake at 2 h [1, 8]: 9.1 ± 0.61 %ID/g
- tissue uptake at 4 h [1, 8]: 6.6 ± 0.88 %ID/g
- tissue uptake at 24 h [1, 8]: 0.49 ± 0.22 %ID/g
- tissue uptake at 48 h [1, 8]: 0.18 ± 0.05 %ID/g
- tissue uptake at 1 h [1, 9]: 9.81 ± 0.82 %ID/g
- tissue uptake at 2 h [1, 9]: 9.31 ± 1.03 %ID/g
- tissue uptake at 4 h [1, 9]: 6.93 ± 1.24 %ID/g
- tissue uptake at 24 h [1, 9]: 0.42 ± 0.12 %ID/g
- tissue uptake at 48 h [1, 9]: 0.14 ± 0.05 %ID/g
- tissue uptake at 1 h [1, 10]: 1.33 ± 0.3 %ID/g
- tissue uptake at 2 h [1, 10]: 1.21 ± 0.26 %ID/g
- tissue uptake at 4 h [1, 10]: 0.7 ± 0.12 %ID/g
- tissue uptake at 24 h [1, 10]: 0.06 ± 0.02 %ID/g
- tissue uptake at 48 h [1, 10]: 0.04 ± 0.02 %ID/g
- tissue uptake at 1 h ([1]; SK-BR-3 tumor-bearing nude mice, read-out: Distribution, Tumor): 2.68 ± 1.34 %ID/g
Structure (SMILES): CC(C)C[C@H](NC(=O)[C@H](Cc1ccc(O)c(I)c1)NC(=O)[C@H](C)NC(=O)[C@H](CCCNC(=N)N)NC(=O)[C@H](Cc1c[nH]c2ccccc12)NC(=O)[C@@H]1CCCN1C(=O)[C@H](CC(N)=O)NC(=O)[C@H](CCC(N)=O)NC(=O)[C@H](CC(=O)O)NC(=O)[C@H](CC(=O)O)NC(=O)[C@H](CS)NC(=O)[C@H](C)N)C(=O)N[C@@H](CC(=O)O)C(=O)N[C@@H](CC(C)C)C(=O)N[C@@H](CC(C)C)C(=O)N[C@@H](Cc1ccccc1)C(=O)N1CCC[C@H]1C(=O)N[C@H](C(=O)N[C@@H](CC(=O)O)C(=O)N[C@H](C(=O)N[C@@H](CC(C)C)C(=O)N[C@@H](CC(C)C)C(=O)N[C@@H](CC(C)C)C(=O)N[C@@H](CC(=O)O)C(=O)N[C@@H](CC(C)C)C(=O)N[C@@H](CC(C)C)C(=O)N[C@@H](Cc1c[nH]c2ccccc12)C(=O)N[C@@H](CCCCN)C(=O)O)[C@@H](C)O)[C@@H](C)O [125I-Var3-pHLIP] (HELM PEPTIDE1{A.C.D.D.Q.N.P.W.R.A.[O=C([C@H](Cc1ccc(O)c(I)c1)N[*:1])[*:2]].L.D.L.L.F.P.T.D.T.L.L.L.D.L.L.W.K}$$$$V2.0; N-terminus and C-terminus assumed)
- binding fraction to cells, B/(B + F) × 100% (MDA-MB-231 cells; pH 6.2, 1 h): 24.90 ± 0.96%
- binding fraction to cells with an excess of unlabeled peptide (MDA-MB-231 cells; pH 6.2, excess unlabeled peptide 25 μg/well): 1.50 ± 0.11%
- binding fraction to cells, B/(B + F) × 100% (MDA-MB-231 cells; pH 6.6, 1 h): 23.88 ± 0.55%
- binding fraction to cells, B/(B + F) × 100% (MDA-MB-231 cells; pH 7.0, 1 h): 23.40 ± 0.44%
- binding fraction to cells, B/(B + F) × 100% (MDA-MB-231 cells; pH 7.4, 1 h): 12.3 ± 0.80%
- binding fraction to cells, B/(B + F) × 100% (MDA-MB-231 cells; pH 7.8, 1 h): 1.30 ± 0.10%
